Experimental data published in patent US20230128770A1, “COMPOSITIONS AND METHODS FOR ENHANCING DIFFERENTIATION OF STEM CELL-DERIVED BETA CELLS” (President and Fellows of Harvard College, priority 2019, published 2023).

Key:
[1] = test system: hPSC-derived MPPs differentiating into NGN3+ / CHGA+ endocrine progenitors; assay: Endocrine specification of MPPs at stage 5, flow cytometry and qPCR; format: cell-based, human; conditions: for CHGA+/NKX6-1+ endocrine progenitor cells by the end of stage 5: assayed at stage 5, day 7
Protocol: (§1) Differentiations into SC-β cells were performed following a protocol described in [3] and as follows: HUES8 or 1016 cells were seeded at 6×10^5 cells/mL in mTeSR1 media and […] Y27632 (Sigma-Aldrich). The media was changed 48 h later and the differentiations were started 72 h after the cells were seeded. The media changes were as follows:
(§2) Stage 5 EN: Days 14 and 16: S5+0.25 μM Sant1+100 nM RA+1 μM XXI (EMD Millipore)+10 μM Alk5i II (Axxora)+1 μM T3 (EMD Millipore)+20 ng/mL Betacellulin (Thermo Fisher Scientific). Days 18, 20: S5+25 nM RA+1 μM XXI+10 μM Alk5i II+1 μM T3+20 ng/mL Betacellulin.
(§3) Control and experimental samples were collected from differentiations performed in parallel with hPSC cells obtained from the same maintenance batch. Treatments with 0.35 μM verteporfin (Sigma-Aldrich), 10 μM roscovitine (Sellekchem), or DMSO (Sigma-Aldrich) were performed at the last stages of the differentiation including stage 4 (days 9-14), stage 5 (days 14-18), and stage 6 (day 18-25, first 7 days) in ultra-low attachment six-well plates (Corning).
(§4) Differentiated cell clusters were dispersed into a single-cell suspension with TrypLE (Life Technologies) at RT, fixed with 4% paraformaldehyde at 4° C., washed three times in PBS+0.2% bovine serum albumin (Millipore)+0.1% saponin (Sigma), blocked for 30 min at 4° C. in PBS+5% donkey serum+0.1% saponin, incubated with primary antibodies overnight at 4° C., washed, and incubated with secondary antibodies for 1 h at RT. Stained, fixed cells were filtered through a 40-μm nylon mesh into flow cytometry tubes (BD Falcon) and were analyzed for relevant stage-specific marker expression using LSR II flow cytometers (BD Biosciences) and FlowJo for the data analysis. Samples stained with secondary antibodies only were used to gate on cells that are negative and accurately identified cells expressing the markers included in the analysis. For shRNA-infected samples, only infected GFP+ cells were included in the analysis (approximately in 30-40% of all cells). To quantify incorporation of EdU and estimate levels of proliferation, cells pulsed with 10 μM EdU for 4 h were dissociated as described above unless stated otherwise. The Click-IT EdU flow cytometry kit (Invitrogen) was used to detect EdU incorporation following the manufacturer's protocol with minor modifications.
The total RNA was isolated using the Direct-ZOL Miniprep kit (Zymo Research), and RNA was stored at −80° C. in RNA storage solution (Invitrogen) until subsequent analysis. […] Gene expression levels were determined with NanoString nSolver software with default parameters and normalized with the expression of five housekeeping genes (ITCH, RPL15, RPL19, TCEB1, and UBE2D3). […]

[2] = test system: hPSC-derived multipotent pancreatic progenitors (MPPs); format: cell-based, human; conditions: 0.35 μM verteporfin during stage 4, vs DMSO
Protocol: as §1
Control and experimental samples were collected from differentiations performed in parallel with hPSC cells obtained from the same maintenance batch. […]
as §4, with “Samples stained with secondary antibodies only were used to gate on cells that are negative and accurately identified cells expressing the markers included in the analysis. For shRNA-infected samples, only infected GFP+ cells were included in the analysis (approximately in 30-40% of all cells).” left out, “The Click-IT EdU flow cytometry kit (Invitrogen) was used to detect EdU incorporation following the manufacturer's protocol with minor modifications.” left out

[3] = test system: stem cell-derived β cells (SC-β cells); assay: SC-β cell differentiation assayed at end of stage 6 (stage 6, day 14), flow cytometry; format: cell-based, human
Protocol: as §1, §2
Stage 6 (3: Days 21-35 (change every other day): S3 media. In the final stage, cells were analyzed between 28 and 35 days of the protocol.
as §3
For infection, cell clusters collected from spinner flask suspension cultures were dissociated in Accutase (StemCell Technologies) for 10 min, followed by mechanical dissociation and centrifugation at 230 g for 5 min at room temperature (RT). Cell pellets were resuspended at a density of 2.5 million cells/mL in the stage-matched medium with polybrene reagent (Santa Cruz) at 8 μg/mL. Single-cell suspensions were combined with concentrated lentiviral particles and plated on ultra-low attachment six-well plates on a rocker plate set at 70 rpm in a 37° C. incubator, 5% CO2, and 100% humidity. Feeding schedule was followed depending on the stage of differentiation as described above.
as §4

SC-β cells = assay: Glucose-stimulated insulin secretion (GSIS) in vitro; format: cell-based, human
Protocol: Approximately 1×10^6 SC-β cells in clusters were washed with Krebs buffer and incubated in low (2.8 mM) glucose Krebs in cell culture inserts (Millicell) to starve cells and remove residual insulin at 37° C. for 1 h. Clusters were washed and incubated in low glucose Krebs for 1 h and the supernantant was collected. They were then transferred to high (20 mM) glucose, incubated for 1 h and the supernatant was collected. For sequential GSIS challenges, this sequence of low- and high-glucose stimulations was repeated twice. At the end, clusters were incubated in 2.8 mM glucose+30 mM KCl Krebs (depolarization challenge) for 1 h and the supernatant was collected. Clusters were dispersed into single cells using TrypLE and cell number was estimated by a Vi-Cell counter (Beckman Coulter). Insulin concentration was determined for supernatant samples using the Human Ultrasensitive Insulin ELISA (ALPCO Diagnostics). Protein extraction was performed with the M-PER extraction reagent (Thermo Scientific), and insulin content was measured for each sample using the human Ultrasensitive Insulin ELISA kit. Insulin secretion levels were normalized to total insulin content for each sample. Stimulation indexes were calculated as a ratio of insulin secretion at high glucose (20 mM) relative to the basal secretion (2.8 mM glucose).

SC-β cell grafts = assay: Mouse transplantation analysis of SC-β cell grafts under the kidney capsule; format: in vivo, immunodeficient SCID-beige mice
Protocol: Cell clusters were collected at the end of each of the differentiation stages and fixed with 4% paraformaldehyde for 1 h at RT, washed in 30% sucrose, embedded in OCT compound (Tissue-Tek) and sectioned for histological analysis. Clusters were blocked with PBS+ 0.1% Triton X-100 (VWR)+5% donkey serum (Jackson Immunoresearch) for 30 min at RT, incubated with primary antibodies overnight at 4° C., washed, and incubated with secondary antibodies for 1 h at RT. Stained clusters were washed and mounted in Flouromount-G (Invitrogen), covered with coverslips, and sealed with nail polish. Images were taken using a Zeis Axio Imager.Z2 and Apotome.2. Image analysis was performed with ImageJ. To estimate the relative proportion of cells in the graft, four tissue sections from different areas in the graft were imaged, and the relative proportions of relevant cell types were quantified as a percent of cells positive for the relevant marker of the total number DAPI nuclei. […]
Dissociated SC-β cells were transplanted into the kidney capsule of immunodeficient SCID-beige mice (Jackson Laboratory), aged 8-10 weeks. […] Wound clips were removed 10 days after surgery and mice were monitored twice a week.
Mice were then analyzed for graft function at various time points by performing in vivo [3]. […]

Compound	differentiation of MPPs into NGN3+ endocrine progenitors (in words) ([1]; 10 μM roscovitine at stage 5, stage 5, day 4, compared with the verteporfin effect)	CHGA+/NKX6-1+ endocrine progenitor cells by the end of stage 5 ([1]; treatment during stage 5)	proportion of MPPs coexpressing the proliferation marker Ki67 ([2]; PDX1/Ki67 at end of stage 4)	number of NKX6.1+ progenitors compared with control differentiations ([2]; PDX1/NKX6.1 co-positive cells at end of stage 4)	proportion of NGN3+ endocrine progenitors ([1]; treatment during stage 5, assayed at stage 5, day 4, DMSO control 6.4±0.52%) [%]	proportion of C-peptide+/NKX6.1+ β cells ([3]; 0.35 μM verteporfin, end of stage 6, control 27.5±4.2%) [%]	glucagon+/C-peptide- alpha cells ([3]; 0.35 μM verteporfin, end of stage 6, vs control)	effect on SC-endocrine and β-cell differentiation in other hPSC cell lines ([3]; 1016 and 13B iPSC lines, C-peptide/NKX6.1 and CHGA/NKX6.1 at stage 6 day 14)	proportion of SOX9+ ductal-like progenitor cells ([3]; treatment during endocrine and β-cell differentiation stages, end of stage 6, vs control)	proportion of Ki67+ proliferating cells ([3]; verteporfin during endocrine and β-cell differentiation stages, end of stage 6, vs control)	impaired endocrine differentiation upon YAPS6A overexpression ([3]; verteporfin treatment of YAPS6A-overexpressing cells, C-peptide/NKX6.1 at stage 6 day 14)	levels of insulin secretion per total insulin content at 2.8 mM glucose, 20 mM glucose, and 30 mM KCl (SC-β cells; SC-β cells differentiated with verteporfin vs DMSO control)	insulin secretion at high glucose over low glucose in sequential glucose stimulations (SC-β cells; verteporfin during stages 5 and 6, 20 mM vs 2.8 mM glucose)	stimulation indexes (insulin secretion at 20 mM relative to 2.8 mM glucose) (SC-β cells; verteporfin-treated vs control endocrine cells)	proportion of SOX9+ cells in the grafts (SC-β cell grafts; cells differentiated in the presence of verteporfin, 12-week post transplantation, SOX9+ of DAPI+, control grafts ~17%) [%]	in vivo glucose-stimulated human insulin secretion (SC-β cell grafts; grafts of cells differentiated in the presence of verteporfin, serum human insulin before and 30 min after glucose injection, 8 weeks post transplantation)
CC[C@H](CO)Nc1nc(NCc2ccccc2)c2ncn(C(C)C)c2n1 [roscovitine]	did not have the same effect	not observed														
verteporfin		increase	twofold decrease	significant decrease	12.1±2	38.6±3.9	modest but significant increase	robust and independent of the genetic background	decrease	decrease	rescued	significantly higher	increase in insulin secretion at high glucose over low glucose	no statistically significant differences	3.1	robust
